# Entries after “also recorded” stand apart in the source; their conditions may differ.
# Tests used:
# [1] = tested on: human monocyte-derived macrophages (human MDMs); experiment: Real-time oxygen consumption rate (OCR) and ECAR (Seahorse) in human MDMs; assay type: cell-based; settings: human MDMs, dose response, 20 h
# Description: Cells were plated at 1.8×10^6 cells per well in a Seahorse XF24 Cell Culture Microplate (Agilent). Cells were then treated with indicated inhibitors or agonists in each experiment for 20 h. Cells were washed twice with Agilent Seahorse XF Media (Agilent) supplemented with 1 mM pyruvate, 2 mM L-glutamine, and 10 mM D-glucose; a final volume of 525 μl was placed in each well. Cells were then incubated in a 0% CO2 chamber at 37° C. for 1 h before being placed into a Seahorse XFe24 Analyzer (Agilent). For OCR and ECAR mitostress test experiments, cells were treated with 1 μM oligomycin, 2 μM carbonyl cyanide p-trifluoromethoxyphenylhydrazone (FCCP), and 0.5 μM rotenone/antimycin (indicated by three black arrows in each seahorse trace). For mitoFlex Fuel test experiments, cells were treated with UK5099 (200 μM) and BPTES (200 μM)/Etomoxir (80 μM). A total of three OCR and pH measurements were taken after each compound was administered. All Seahorse experiments were repeated at least three times unless otherwise indicated. All OCR and ECAR data were normalized to cell number per well using CyQUANT (ThermoFisher Scientific, Waltham, Mass., USA).
# Peripheral blood mononuclear cells from de-identified healthy donors (young<35 years old, aged>65 years old) were obtained from the Stanford Blood Center and transferred to 50 ml conical tubes. Samples were diluted with 20 ml PBS and layered onto 10 ml of Ficoll-Paque (GE Healthcare) using a Pasteur pipette. Tubes were centrifuged at 1,500 r.p.m. for 25 min without brake at 20° C. The mononuclear cell layer was transferred to a new 50 ml conical tube, resuspended in 50 ml 1×PBS and centrifuged at 1500 r.p.m. for 10 min, repeated twice. After centrifugation, monocytes were isolated using a Monocyte Isolation Kit, human (MACS; Miltenyi Biotech). Cells were then plated 10×10^6 per 10-cm petri dish and differentiated for 7 days in Roswell Park Memorial Institute (RPMI) media supplemented with 10% FBS, 1% penicillin-streptomycin, and 50 ng ml^−1 M-CSF (Peprotech).
# [2] = tested on: aged mice; experiment: Electrophysiology: hippocampal CA1 long-term potentiation (LTP); assay type: in vivo, mouse; settings: aged (20-22 mo) mice, 2.5 mg/kg/d, 6 weeks; 2.5 mg/kg/day
# Description: To measure the cellular mechanism of learning and memory, a modified protocol previously described (Latif-Hernandez et al., Frontiers in cellular neuroscience 10, 252, (2016), incorporated herein by reference) was used. Mice were euthanized by cervical dislocation, and hippocampus (HC) was rapidly dissected out into ice-cold (4° C.) artificial cerebrospinal fluid (ACSF), saturated with carbogen (95% O2/5% CO2). ACSF consisted of (in mM): 124 NaCl, 4.9 KCl, 24.6 NaHCO3, 1.20 KH2PO4, 2.0 CaCl2, 2.0 MgSO4, 10.0 glucose, pH 7.4. […] Slices were carefully positioned on a R6501A multi-electrode array (Alpha MED Scientific Inc., Osaka, Japan) with electrodes arrayed in an 8×2 matrix with interpolar distance of 150 μm; each matrix measured 50 μm×50 μm. After 30 min incubation, the field excitatory postsynaptic potentials (fEPSPs) in CA1 were recorded by stimulating downstream electrodes in the CA1 and CA3 regions along the Schaffer collateral pathway. […] The time course of the fEPSP was calculated as the descending slope function for all experiments. […] The mean baseline fEPSP value was calculated and percentage change from baseline after the TBS was analyzed for LTP.
# [3] = tested on: aged mice; experiment: Nanostring transcriptomics of peritoneal macrophages from treated mice; assay type: in vivo, mouse
# Description: For gene expression analysis on the NanoString nCounter system, 100 ng of RNA was hybridized to a multiplexed nucleotide probe pool for 16 hours at 65° C. Enriched targets were purified and quantified using the nCounter MAX Analysis System. NanoString data analysis was performed by Canopy Biosciences (St. Louis, Mo.). Raw counts were normalized using the geometric mean of both positive control probes (technical variability) and housekeeping gene probes (assay input variability). Normalized data was uploaded to the interactive analysis platform Rosalind (https://rosalind.onramp.bio/), with a HyperScale architecture developed by OnRamp BioInformatics, Inc. (San Diego, Calif.) Read Distribution percentages, violin plots, identity heatmaps, and sample MDS plots were generated as part of the QC step. The limma R library1 was used to calculate fold changes and p-values and perform optional covariate correction. Clustering of genes for the final heatmap of differentially expressed genes was done using the PAM (Partitioning Around Medoids) method using the fpc R library2 that takes into consideration the direction and type of all signals on a pathway, the position, role and type of every gene, etc. Functional enrichment analysis of pathways, gene ontology, domain structure and other ontologies was performed using HOMER3. Several database sources were referenced for enrichment analysis, including Interpro4, NCBI5, MSigDB6,7, REACTOME8, WikiPathways9. Enrichment was calculated relative to a set of background genes relevant for the experiment.
# [4] = aged mice, 2.5 mg/kg/d, 6 weeks
structure (smiles),measurement,setting,value
COc1ccc2cc(OCC3(C(=O)O)CN(C(=O)c4ccc(F)cc4)C3)ccc2c1 [PF-04418948],"ECAR (extracellular acidification rate, glycolysis)",[1],increased
same,basal OCR (oxygen consumption),[1],increased
same,LTP in CA1 hippocampal region of aged mice,[2],restored hippocampal memory function as well as LTP to youthful levels; also recorded: rescued
same,expression of glycolytic and TCA genes in peritoneal macrophages,"[3]; aged (20-22 mo) mice, 2.5 mg/kg/d for 6 weeks",restores expression levels of glycolytic and TCA genes in aged mice
same,age-related upregulation of pro-inflammatory gene transcripts and downregulation of glycolytic and TCA gene transcripts in macrophages,[3]; [4],reciprocally reversed
same,top differentially regulated chemokine and cytokine transcripts in peritoneal macrophages,[3]; [4],shifts expression towards young macrophage levels
same,"transcriptome of peritoneal macrophages (clustering of 1449 genes, PCA)","[3]; young (3-4 mo) and aged (20-22 mo) mice, 2.5 mg/kg/d, 6 weeks, 2.5 mg/kg/day",cluster with young mice treated with vehicle or PF-04418948; also recorded: significant shift away from vehicle-treated aged mice toward young macrophages

# Reference: patent US20220048987A1, “METHOD OF TREATMENT TO PREVENT OR REVERSE AGE-ASSOCIATED INFLAMMATION, COGNITIVE DECLINE, AND NEURODEGENERATION” (The Board of Trustees of the Leland Stanford Junior …, priority 2020, published 2022)
